target: T1, mouse TRPM3α2 (mTRPM3) ion channel (Mus musculus, UniProt J9SQF3); assay: TRPM3 ion channel driven Ca2+ uptake, Fluo-4 AM assay, stimulated with pregnenolone sulfate (50 μM); format: cell-based; details: TRPM3 overexpressing flip-in HEK293 cells, PS 50 μM, 2.4 mM Ca2+
T1 construct: expressed in transfected cells; host or cells: flip-in HEK293 (Flp-In HEK293) overexpressing mTRPM3alpha2
Procedure: In order to monitor the inhibition of the mouse TRPM3α2 (mTRPM3) ion channel by the compounds of the invention, a cellular system making use of an mTRPM3alpha2 or hTRPM3 overexpressing cell line (flip-in HEK293) was used. The TRPM3 channel was stimulated/opened with Pregnenolone sulfate (PS) (50 μM) which results in Ca^2+ influx.
For mTRPM3, the intracellular Ca^2+ was measured with a Calcium responsive dye, Fluor-4 AM ester (Invitrogen). Cells were cultured until a confluence of 80-90%, washed with Versene (Invitrogen) and detached from the surface by a short incubation with 0.05% Trypsin (Invitrogen). The […] was stopped by the addition of complete cell culture medium (DMEM, glutamax, 10% FCS, NEAA, Pen-Strep). Cells were collected and resuspended in Krebs buffer without Calcium at RT.
Prior the cell seeding (±2000 cells/well into a black, 384 well plate (Greiner)) the diluted compound was added in the assay plate, together with the PS dissolved in Krebs buffer containing Calcium. […] Directly after cell addition the plates were read on an Envision fluorescence reader (Perkin Elmer) by an Excitation of 485 nm and emission at 535 nm.
Channel inhibition was calculated compared to a non-PS stimulated control versus a condition stimulated with PS (50 μM) with vehicle. The ability of the compounds of the invention to inhibit this activity was determined as: Percentage inhibition=[1−((RFU determined for sample with test compound present−RFU determined for sample with positive control inhibitor) divided by (RFU determined in the presence of vehicle−RFU determined for sample with positive control inhibitor))]*100.
The activities of the Example compounds cpd 001-091 tested are depicted in the table below. All tested compounds show an activity in the Fluo-4 AM assay. The activity ranges A, B and C refer to IC50 values in the Fluo-4 AM assay as follows: “A”: IC50<1 μM; “B”: 1 μM≤IC50≤20 μM and “C”: IC50>20 μM.

T1 sequence (J9SQF3 1-1709 isoform J9SQF3-12): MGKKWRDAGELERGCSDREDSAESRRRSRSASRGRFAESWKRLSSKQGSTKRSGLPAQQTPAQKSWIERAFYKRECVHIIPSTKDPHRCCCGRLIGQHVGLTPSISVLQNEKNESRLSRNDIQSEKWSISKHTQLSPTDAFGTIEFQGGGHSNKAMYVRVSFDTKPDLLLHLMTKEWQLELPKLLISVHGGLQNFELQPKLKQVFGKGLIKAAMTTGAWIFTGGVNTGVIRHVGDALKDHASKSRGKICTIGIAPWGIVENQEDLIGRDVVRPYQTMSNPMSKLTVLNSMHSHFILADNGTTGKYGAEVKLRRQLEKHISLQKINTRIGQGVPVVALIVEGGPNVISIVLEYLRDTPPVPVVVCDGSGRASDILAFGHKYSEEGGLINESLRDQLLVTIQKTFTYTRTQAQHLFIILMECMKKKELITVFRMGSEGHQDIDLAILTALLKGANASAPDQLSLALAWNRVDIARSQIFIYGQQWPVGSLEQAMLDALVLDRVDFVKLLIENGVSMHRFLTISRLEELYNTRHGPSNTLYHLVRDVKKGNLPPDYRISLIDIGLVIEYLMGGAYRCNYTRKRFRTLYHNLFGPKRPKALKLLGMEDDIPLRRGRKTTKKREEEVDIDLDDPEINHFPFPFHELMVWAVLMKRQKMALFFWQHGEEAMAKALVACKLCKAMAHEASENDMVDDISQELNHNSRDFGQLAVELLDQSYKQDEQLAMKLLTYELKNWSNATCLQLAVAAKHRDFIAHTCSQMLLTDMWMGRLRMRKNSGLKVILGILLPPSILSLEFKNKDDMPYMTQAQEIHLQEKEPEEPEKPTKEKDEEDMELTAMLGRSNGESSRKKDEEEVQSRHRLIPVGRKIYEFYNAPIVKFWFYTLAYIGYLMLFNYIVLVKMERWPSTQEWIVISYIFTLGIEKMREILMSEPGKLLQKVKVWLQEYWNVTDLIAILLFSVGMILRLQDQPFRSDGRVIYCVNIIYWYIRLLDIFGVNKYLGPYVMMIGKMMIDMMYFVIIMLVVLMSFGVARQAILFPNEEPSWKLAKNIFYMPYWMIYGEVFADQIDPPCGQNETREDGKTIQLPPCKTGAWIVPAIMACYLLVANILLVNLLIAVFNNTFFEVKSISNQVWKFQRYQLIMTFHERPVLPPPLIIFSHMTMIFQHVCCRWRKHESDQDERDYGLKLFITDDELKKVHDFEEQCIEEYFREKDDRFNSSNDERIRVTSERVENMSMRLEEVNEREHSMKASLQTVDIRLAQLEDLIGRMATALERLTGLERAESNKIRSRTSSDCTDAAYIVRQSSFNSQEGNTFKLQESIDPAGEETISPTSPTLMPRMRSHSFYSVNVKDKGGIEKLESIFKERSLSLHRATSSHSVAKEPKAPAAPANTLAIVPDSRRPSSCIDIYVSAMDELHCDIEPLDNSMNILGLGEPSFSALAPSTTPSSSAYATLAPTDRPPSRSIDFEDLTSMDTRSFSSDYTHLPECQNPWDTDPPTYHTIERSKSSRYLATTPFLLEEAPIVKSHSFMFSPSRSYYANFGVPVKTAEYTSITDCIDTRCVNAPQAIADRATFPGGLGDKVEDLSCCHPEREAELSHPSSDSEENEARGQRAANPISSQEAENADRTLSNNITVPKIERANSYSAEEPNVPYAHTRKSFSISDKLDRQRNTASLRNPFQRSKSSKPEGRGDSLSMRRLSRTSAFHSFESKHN

IC50 [µM]	Structure (SMILES)
< 1	Cc1nn2ccc(OCc3ccccc3F)cc2c1C(=O)NC1(CO)CCNC1=O (single isomer, unassigned) [Cpd 018 - En2, 5-[(2-fluorophenyl)methoxy]-N-[3-(hydroxymethyl)-2-oxopyrrolidin-3-yl]-2-methylpyrazolo[1,5-a]pyridine-3-carboxamide]
1 to 20	Cc1nn2ccc(OCc3ccccn3)cc2c1C(=O)NC(C)(CO)CC(F)F (single isomer, unassigned) [Cpd 038 - En1, N-(4,4-difluoro-1-hydroxy-2-methylbutan-2-yl)-2-methyl-5-[(pyridin-2-yl)methoxy]pyrazolo[1,5-a]pyridine-3-carboxamide]
1 to 20	Cc1ncsc1COc1ccn2nc(C)c(C(=O)N[C@@H](CO)C(N)=O)c2c1 [Cpd 010, (2S)-3-hydroxy-2-({2-methyl-5-[(4-methyl-1,3-thiazol-5-yl)methoxy]pyrazolo[1,5-a]pyridin-3-yl}formamido)propanamide]
> 20	Cc1nn2ccc(OCc3ccccn3)cc2c1C(=O)NCCO [Cpd 043, N-(2-hydroxyethyl)-2-methyl-5-[(pyridin-2-yl)methoxy]pyrazolo[1,5-a]pyridine-3-carboxamide]
1 to 20	Cc1nn2ccc(OCc3ccccc3Cl)cc2c1C(=O)NC(C)(C)C(N)=O [Cpd 013, 2-({5-[(2-chlorophenyl)methoxy]-2-methylpyrazolo[1,5-a]pyridin-3-yl}formamido)-2-methylpropanamide]
1 to 20	Cc1nn2ccc(OCc3ccccn3)cc2c1C(=O)NC1CNCCC1(F)F (single isomer, unassigned) [Cpd 050 - En2, N-(4,4-difluoropiperidin-3-yl)-2-methyl-5-[(pyridin-2-yl)methoxy]pyrazolo[1,5-a]pyridine-3-carboxamide]

Source: patent US20250376468A1, “PYRAZOLO[1,5-a]PYRIDINE DERIVATIVES FOR TREATING TRPM3-MEDIATED DISORDERS” (Katholieke Universiteit Leuven, priority 2022, published 2025)
